Reference: patent US7449477B2, “7-phenyl-isoquinoline-5-sulfonylamino derivatives as inhibitors of akt (protein kinase B)” (Eli Lilly and Company, priority 2003, dated 2008)
Where a name gives a salt, the structure may show the parent alone.

Target: T1, active human Akt1 (Homo sapiens, UniProt P31749)
T1 construct: Active human recombinant Akt1 (full-length) purified from Sf9 insect cells; purchased Upstate Biotechnology, Inc. 14-276; host or cells: Sf9 insect cells
Assay: Akt1 Phosphorylation Assay (phosphocellulose filter-binding, 33P-Crosstide)
Format: biochemical
Settings: active human recombinant Akt1 (full-length) 10 nM; 12.5 μM Crosstide; 20 μM ATP; 30 minutes at room temperature
Protocol: Akt1 Phosphorylation Assay
The assay described measures the phosphorylation of Crosstide by active human Akt1 and other Akt isoforms. Crosstide contains a consensus sequence derived from Akt substrates GSK3b and forkhead transcription factors (FKs). The ^33P-labeled Crosstide substrate is captured by phosphocellulose membrane filter plates.
Active human recombinant Akt1 (full-length) purified from Sf9 insect cells is from Upstate Biotechnology, Inc. (Cat. #14-276, 405 μg/ml). Crosstide substrate, NH2-GRPRTSSFAEG-COOH (M.W.1164) is purchased from Multiple Peptide System (Cat. # L59/GR145-153).
Solution (A): 20% DMSO (dimethylsulphoxide) or Compound in 20% DMSO; Solution (B): Assay Buffer Mix: 31.25 μM Crosstide, 37.5 mM MgCl2, 87.5 mM HEPES, pH 7.3, 50 μM ATP γ-^33P-ATP, 0.05 μCi/μl; Solution (C): Akt Kinase Mix: 31.25 mM HEPES, pH 7.3; 1 mM DTT, 25 nM UBI Akt1.
Procedure for Phosphocellulose Filter-Binding Assay
Ten μl of Solution (A) are first mixed with 20 μl Solution (B). The enzymatic reaction is initiated by adding 20 μl Solution (C) to the mixture. (Final concentration or amount in a 50-μl reaction mix: 4% DMSO or various compound concentration in 4% DMSO; 12.5 μM Crosstide; 15 mM MgCl2; 35 mM HEPES, pH7.3; 20 μM ATP; 1 μCi γ-^33P-ATP; 0.4 mM DTT; 10 nM UBI Akt1.) The reactions are performed in 96-well microtiter plates.
After 30 minutes at room temperature, the reaction is terminated by adding 80 μl of 10% H3PO4. An aliquot of 100 μl from each well is transferred to the phosphocellulose filter plate (Millipore MultiScreen, Catalog #MAPHN0B50). After 30 minutes, the reaction mix is filtered with a Millipore manifold following by 3 washes with 0.5% H3PO4. The filter is then vacuum-dried and the plate is fitted onto a Packard carrier. 100 μl/well Microscint20 are added and the contents are counted in a Packard Top Count.

T1 sequence (P31749 whole entry): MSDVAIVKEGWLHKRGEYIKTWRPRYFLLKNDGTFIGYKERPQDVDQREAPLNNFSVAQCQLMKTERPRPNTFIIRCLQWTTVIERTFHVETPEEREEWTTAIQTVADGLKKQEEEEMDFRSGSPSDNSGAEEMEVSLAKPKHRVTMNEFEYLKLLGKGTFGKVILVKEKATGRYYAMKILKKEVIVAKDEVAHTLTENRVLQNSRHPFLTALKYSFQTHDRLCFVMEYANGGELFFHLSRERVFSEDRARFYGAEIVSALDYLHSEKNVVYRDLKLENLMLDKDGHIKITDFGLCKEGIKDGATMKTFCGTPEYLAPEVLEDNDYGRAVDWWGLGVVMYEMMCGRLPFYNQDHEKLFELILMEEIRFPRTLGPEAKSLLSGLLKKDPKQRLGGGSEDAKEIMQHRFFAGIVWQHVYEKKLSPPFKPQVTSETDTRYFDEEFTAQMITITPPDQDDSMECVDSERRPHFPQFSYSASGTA

| Compound | IC50 [nM] |
| --- | --- |
| O=[N+]([O-])c1ccc(C(O)C(O)CNCCNS(=O)(=O)c2cc(-c3ccccc3)cc3cnccc23)cc1 (single isomer, unassigned; isomer 1) [Example 88, 7-Phenyl-isoquinoline-5-sulfonic acid [2-(2,3-dihydroxy-3-(4-nitrophenyl)-propylamino)-ethyl]-amide isomer 1, dihydrochloride salt] | ≤ 2000 |
| O=S(=O)(NCCNCCCc1ccc(Br)cc1)c1cc(-c2ccccc2)cc2cnccc12 [Example 4, 7-Phenyl-isoquinoline-5-sulfonic acid {2-[3-(4-bromophenyl)-propylamino]-ethyl}-amide, dihydrochloride salt] | ≤ 2000 |
| O=S(=O)(NCCNCCCc1ccccc1N1C=CC=NC=C1)c1cc(-c2ccccc2)cc2cnccc12 [Example 7, 7-Phenyl-isoquinoline-5-sulfonic acid {2-[3-(2-[1,4]diazepin-1-yl-phenyl)-propylamino]-ethyl}-amide, tetrahydrochloride salt] | ≤ 2000 |
| O=S(=O)(NCCNCCCc1ccccc1N1CCNCC1)c1cc(-c2ccccc2)cc2cnccc12 [Example 11, 7-Phenyl-isoquinoline-5-sulfonic acid {2-[3-(2-(piperazin-1-yl-phenyl)-propylamino]-ethyl}-amide, tetrahydrochloride salt] | ≤ 2000 |
| CCCNS(=O)(=O)c1ccc(CCCNCCNS(=O)(=O)c2cc(-c3ccccc3)cc3cnccc23)cc1 [Example 21, 7-Phenyl-isoquinoline-5-sulfonic acid {2-[3-(4-(N-propylamino-sulfonyl)phenyl)-propylamino]-ethyl}-amide, dihydrochloride salt] | ≤ 2000 |
| CN(C)S(=O)(=O)c1ccc(CCCNCCNS(=O)(=O)c2cc(-c3ccccc3)cc3cnccc23)cc1 [Example 24, 7-Phenyl-isoquinoline-5-sulfonic acid {2-[3-(4-(N,N-dimethyl-aminosulfonyl)phenyl)-propyl-amino]-ethyl}-amide, dihydrochloride salt] | ≤ 2000 |
| O=S(=O)(NCCNCCCc1ccc(OC(F)(F)C(F)F)cc1)c1cc(-c2ccccc2)cc2cnccc12 [Example 27, 7-Phenyl-isoquinoline-5-sulfonic acid {2-[3-(4-(1,1,2,2-tetrafluoroethoxy)phenyl)-propylamino]-ethyl}-amide, dihydrochloride salt] | ≤ 2000 |
| O=S(=O)(NCCNCCCc1ccc(OC(F)F)cc1)c1cc(-c2ccccc2)cc2cnccc12 [Example 30, 7-Phenyl-isoquinoline-5-sulfonic acid {2-[3-(4-difluoromethoxy-phenyl)-propylamino]-ethyl}-amide, dihydrochloride salt] | ≤ 2000 |
| N#Cc1cccc(CCCNCCNS(=O)(=O)c2cc(-c3ccccc3)cc3cnccc23)c1 [Example 32, 7-Phenyl-isoquinoline-5-sulfonic acid {2-[3-(3-cyanophenyl)-propylamino]-ethyl}-amide, dihydrochloride salt] | ≤ 2000 |
| N#Cc1ccc(CCCNCCNS(=O)(=O)c2cc(-c3ccccc3)cc3cnccc23)cc1 [Example 33, 7-Phenyl-isoquinoline-5-sulfonic acid {2-[3-(4-cyanophenyl)-propylamino]-ethyl}-amide, dihydrochloride salt] | ≤ 2000 |
| O=S(=O)(NCCNCCCc1ccc(F)cc1-c1ccccc1)c1cc(-c2ccccc2)cc2cnccc12 [Example 36, 7-Phenyl-isoquinoline-5-sulfonic acid {2-[3-(5-fluoro-biphenyl-2-yl)-propylamino]-ethyl}-amide, dihydrochloride salt] | ≤ 2000 |
| O=[N+]([O-])c1ccc(CCCNCCNS(=O)(=O)c2cc(-c3ccccc3)cc3cnccc23)c(Cl)c1 [Example 38, 7-Phenyl-isoquinoline-5-sulfonic acid {2-[3-(2-chloro-4-nitrophenyl)-propylamino]-ethyl}-amide, dihydrochloride salt] | ≤ 2000 |
| Cc1ccc([N+](=O)[O-])cc1CCCNCCNS(=O)(=O)c1cc(-c2ccccc2)cc2cnccc12 [Example 39, 7-Phenyl-isoquinoline-5-sulfonic acid {2-[3-(2-methyl-5-nitrophenyl)-propylamino]-ethyl}-amide, dihydrochloride salt] | ≤ 2000 |
| O=[N+]([O-])c1ccc(CCCNCCNS(=O)(=O)c2cc(-c3ccccc3)cc3cnccc23)c(-c2ccccc2)c1 [Example 42, 7-Phenyl-isoquinoline-5-sulfonic acid {2-[3-(5-nitro-biphenyl-2-yl)-propylamino]-ethyl}-amide, dihydrochloride salt] | ≤ 2000 |
| O=S(=O)(NCCNCCCc1ccc(Cl)cc1N1CCNCC1)c1cc(-c2ccccc2)cc2cnccc12 [Example 44, 7-Phenyl-isoquinoline-5-sulfonic acid {2-[3-(4-chloro-2-piperazin-1-yl-phenyl)-propylamino]-ethyl}-amide, tetrahydrochloride salt] | ≤ 2000 |

Next, values leading:

| IC50 [nM] | Compound |
| --- | --- |
| ≤ 2000 | O=[N+]([O-])c1ccc(CC(O)CNCCNS(=O)(=O)c2cc(-c3ccccc3)cc3cnccc23)cc1 (racemic) [Example 83, 7-Phenyl-isoquinoline-5-sulfonic acid [2-(2-hydroxy-3-(4-nitrophenyl)-propylamino)-ethyl]-amide, dihydrochloride salt] |
| ≤ 2000 | O=[N+]([O-])c1ccc(CC(O)CNCCNS(=O)(=O)c2cc(-c3ccccc3)cc3cnccc23)cc1 (single isomer, unassigned; isomer 1) [Example 85, 7-Phenyl-isoquinoline-5-sulfonic acid [2-(2-hydroxy-3-(4-nitrophenyl)-propylamino)-ethyl]-amide isomer 1, dihydrochloride salt] |
| ≤ 2000 | O=[N+]([O-])c1ccc(CCCNCCNS(=O)(=O)c2cc(-c3ccccc3)cc3cnccc23)cc1 [Example 3, 7-Phenyl-isoquinoline-5-sulfonic acid {2-[3-(4-nitrophenyl)-propylamino]-ethyl}-amide, dihydrochloride salt] |
| ≤ 2000 | O=S(=O)(NCCNCCCc1cccc(O)c1)c1cc(-c2ccccc2)cc2cnccc12 [Example 18, 7-Phenyl-isoquinoline-5-sulfonic acid {2-[3-(3-hydroxyphenyl)-propylamino]-ethyl}-amide, dihydrochloride salt] |
| ≤ 2000 | O=S(=O)(NCCNCCCc1ccc(O)cc1)c1cc(-c2ccccc2)cc2cnccc12 [Example 19, 7-Phenyl-isoquinoline-5-sulfonic acid {2-[3-(4-hydroxyphenyl)-propylamino]-ethyl}-amide, dihydrochloride salt] |
| ≤ 2000 | O=C(Nc1ccc(CCCNCCNS(=O)(=O)c2cc(-c3ccccc3)cc3cnccc23)cc1)C1CC1 [Example 25, 7-Phenyl-isoquinoline-5-sulfonic acid {2-[3-(4-(cyclopropyl-carbonylamino)phenyl)-propylamino]-ethyl}-amide, dihydrochloride salt] |
| ≤ 2000 | CC(=O)Nc1ccc(CCCNCCNS(=O)(=O)c2cc(-c3ccccc3)cc3cnccc23)cc1 [Example 28, 7-Phenyl-isoquinoline-5-sulfonic acid {2-[3-(4-acetamidophenyl)-propylamino]-ethyl}-amide, dihydrochloride salt] |
| ≤ 2000 | COc1cccc(CCCNCCNS(=O)(=O)c2cc(-c3ccccc3)cc3cnccc23)c1 [Example 31, 7-Phenyl-isoquinoline-5-sulfonic acid {2-[3-(3-methoxyphenyl)-propylamino]-ethyl}-amide, dihydrochloride salt] |
| ≤ 2000 | CSc1ccc(CCCNCCNS(=O)(=O)c2cc(-c3ccccc3)cc3cnccc23)cc1 [Example 35, 7-Phenyl-isoquinoline-5-sulfonic acid {2-[3-(4-methylthiophenyl)-propylamino]-ethyl}-amide, dihydrochloride salt] |
| ≤ 2000 | Cc1cc([N+](=O)[O-])ccc1CCCNCCNS(=O)(=O)c1cc(-c2ccccc2)cc2cnccc12 [Example 40, 7-Phenyl-isoquinoline-5-sulfonic acid {2-[3-(2-methyl-4-nitrophenyl)-propylamino]-ethyl}-amide, dihydrochloride salt] |
| ≤ 2000 | O=[N+]([O-])c1cccc(-c2cc(Cl)ccc2CCCNCCNS(=O)(=O)c2cc(-c3ccccc3)cc3cnccc23)c1 [Example 47, 7-Phenyl-isoquinoline-5-sulfonic acid {2-[3-(5-chloro-3′-nitro-biphenyl-2-yl)-propylamino]-ethyl}-amide, dihydrochloride salt] |
